Data taken from patent publication US20240050409A1, “Methods and Compositions for Treating Psychotic Disorders” (SOUND PHARMACEUTICALS INCORPORATED, priority 2014, published 2024).
“Also recorded” adds a separate entry of the source.

Assays:
NVHL rats = test: Mismatch negativity (MMN), auditory evoked potentials, NVHL rats; assay type: in vivo, Sprague-Dawley rats; conditions: juvenile treatment
Procedure: Abnormal excitation-inhibition balance in adult NVHL rats can yield altered information processing that would be prevented by NAC treatment if it depended on oxidative stress. Mismatch negativity (MMN) was tested using auditory evoked potentials in an oddball paradigm in SHAM (n=6), NVHL (n=3), and NAC-treated NVHL rats (n=3). MMN has high translational relevance, as it is attenuated in schizophrenia patients (Javitt et al., 1993) and in animal models (Ehrlichman et al., 2009). Electroencephalographic (EEG) electrodes were implanted in NVHL, NAC-treated NVHL, and SHAM rats. This observation is consistent with the effect of NAC on MMN in patients (Lavoie et al., 2008), and indicates the NVHL model reproduces an important disease marker that can be prevented by juvenile antioxidant treatment. As MMN depends on NMDA receptor function (Umbricht et al., 2000) and NMDA hypofunction in PVI is suspected in schizophrenia, it is possible that MMN improvement with NAC results from restored PVI activity. […]
Mismatch Negativity: NVHL, NAC-treated NVHL, and sham female rats were implanted with chronic EEG electrodes under isoflurane anesthesia. […] A difference wave was constructed by subtracting the standard wave from the deviant wave, and MMN was quantified by measuring the area under the curve in the period between 35 and 100 ms after the stimulus. […]

[1] = tested on: PFC pyramidal neurons of NVHL rats; test: In vivo intracellular recordings: PFC pyramidal cell firing after VTA stimulation in NVHL rats; parameters: species or system Sprague-Dawley rats; conditions: anesthetized adult NVHL rats, juvenile treatment
Procedure: The abnormal dopamine modulation of PFC function in NVHL rats is also observed in vivo. In vivo intracellular recordings were performed in 38 pyramidal neurons from adult rats (n=9 SHAM (placebo), n=5 NVHL, and n=7 NAC-treated NVHL). […] Up states occurred at a frequency of 0.6±0.1 Hz with a duration of 523.6±24.7 ms. The majority of cells (n=21) fired spontaneously at a rate of 2.1±0.7 Hz.
Antioxidant pretreatment regimen: NAC (BioAdvantexPharma, Mississauga, Ontario, Canada) was administered in the drinking water at 900 mg/l. NAC treatment started at P5 or at P35, and previous work in mice has shown that NAC consumed by the dam is transmitted to the pups through her milk (das Neves Duarte et al., 2012). NAC treatment ended at P50. Fresh solutions were prepared every 2-3 days. Ebselen (Sound Pharmaceuticals Inc., Seattle, WA) was administered i.p. 5 days a week starting at P35 until the day of PPI testing (P60). Stock ebselen solution (20 mg/ml DMSO, frozen aliquots) was diluted 1:5 in sterile water and administered at a dose of 10 mg/kg. Control animals received an equivalent concentration of DMSO diluted 1:5 in water. […]
Microelectrodes were advanced through the medial PFC until a neuron was impaled. […] Firing was measured in the 500 ms epoch following the last VTA pulse in all sweeps, and compared among experimental groups. […]

In the case of `CC(=O)N[C@@H](CS)C(=O)O` [NAC, N-acetyl cysteine], the “effect on MMN deficit” value (NVHL rats) is reported as “improving” and the “effect on abnormal increase in pyramidal cell firing after VTA burst stimulation” value [1] is reported as “prevented; also recorded: sparse”.
